Consider one compound from patent US10941147B2, “Bicyclic heteroaryl derivatives” (Hoffmann-La Roche Inc., priority 2016, dated 2021).

Molecules are shown by their SMILES.

The target in the assay is T1, γ-secretase (Homo sapiens, UniProt P49768).
T1 construct: Human neuroglioma H4 cells overexpressing human APP695; endogenous in cells; host or cells: human neuroglioma H4 cells stably overexpressing human APP695 Swedish
Description: Cellular γ-secretase assay (inhibition of Aβ42 secretion, AlphaLisa). It is filed as cell-based. The note with it: Human neuroglioma H4 cells overexpressing human APP695 Swedish double mutation; 24 hr compound incubation; secreted Aβ42 in supernatant. The protocol: Description of γ-Secretase Assay
Cellular γ-Secretase Assay
Human neuroglioma H4 cells overexpressing human APP695 with the Swedish double mutation (K595N/M596L) were plated at 30,000 cells/well/100 al in 96-well plates in IMDM media containing 10% FCS, […] Hygromycin B and incubated at 37° C., 5% CO2.
3-4 hr post plating, compounds are a diluted in media and 50 μl is added as 1.5-fold concentrate to achieve the final concentration. Compound incubation is performed for 24 hr. Final doses typically range from 4 μM down to 0.0013 μM in half-log steps resulting in a eight point dose response curve.
Appropriate controls using vehicle only and reference compound were applied to this assay. The final concentration of Me2SO was 0.4%.
After incubation at 37° C., 5% CO2, the supernatant was subjected to quantification of secreted Aβ42 by the means of an AlphaLisa assay kit (Human Amyloid beta 1-42 Kit: Cat #AL203C, Perkin Elmer). 20 μl of the cell culture supernatant was transferred to an assay plate. Then 10 μl of a mixture of the AlphaLisa coupled capture antibody and the biotinylated detection antibody was added and incubated for 3 hours at room temperature while softly shaking the assay plate. After a further addition of 20 μl of the Donor beads the assay plate was incubated for 30 min at room temperature and constant shaking without exposure to direct light. The assay plate was then read on a Paradigm AlphaLisa Reader using the build-in program with excitation at 680 nm and emission at […].
The measured signals were then used to calculate IC50 values for inhibition of Aβ42 secretion by nonlinear regression fit analysis using XLfit 5.3 software (IDBS).

In the case of `Cc1ncnc(N2C[C@H]3CC[C@@H](C2)[C@@H]3Nc2nc3n(n2)CCCCC3c2ccc(F)c(F)c2F)c1F` (stereo partly drawn) [Example 22, N-[(1R,5S,8S)-3-(5-fluoro-6-methyl-pyrimidin-4-yl)-3-azabicyclo[3.2.1]octan-8-yl]-9-(2,3,4-trifluorophenyl)-6,7,8,9-tetrahydro-5H-[1,2,4]triazolo[1,5-a]azepin-2-amine], the EC50 was found to be 30.3 nM.

A word on the EC50: it is the concentration that produces a half-maximal response. High values mean weaker potency, low ones greater potency.
